Active and inactive are the calls of the source. The rule behind the calls is not given here.

The results in this text go back to ChEMBL document CHEMBL3286203, “Reactive oxygen species (ROS) inducible DNA cross-linking agents and their effect on cancer cells and normal lymphocytes” (J Med Chem, 2014).

For the assay, the system named is CLL. The experiment in a line: Induction of apoptosis in human CLL cells at 10 uM after 24 hrs by DCDFA assay in presence of NAC. It is filed as functional, cell-based.

With `CC1(C)OB(c2ccc(N(CCCl)CCBr)cc2)OC1(C)C`, the result was inactive.
